Biological target: hFXR (Homo sapiens (Human), UniProt Q96RI1)
Test: In Vitro FXR Assay (TK)
Type: cell-based
Conditions: CV-1 cells transfected with hFXR, hRXR, TK-ECRE-luc and pCMX-YFP; incubated 18 hrs; luminescence; maximum efficacy <25% of the Fexarmine control classified as '+'
Protocol: Example B-1: In Vitro FXR Assay (TK)
CV-1 cells were seeded at a density of 2,000,000 cells in a T175 flask with DMEM+10% charcoal double-stripped FBS and incubated at 37° C. in 5% CO2 for 18 h (O/N).
After 18 h of incubation, the medium in the T175 flask was changed with fresh DMEM+10% charcoal super-stripped serum. In a polypropylene tube, 2500 μL OptiMEM (Life Technologies, Cat #31985-062) was combined with expression plasmids for hFXR, hRXR, TK-ECRE-luc and pCMX-YFP. The tube was then briefly vortexed and incubated at room temperature for 5 minutes. Transfection reagent (X-tremeGENE HP from Roche, Cat #06 366 236 001) was added to the OptiMEM/plasmid mixture vortexed and incubated at room temperature for 20 minutes. Following incubation, the transfection reagent/DNA mixture complex was added to cells in the T175 flask and the cells were incubated at 37° C. in 5% CO2 for 18 h (O/N).
Compounds were serially diluted in DMSO and added to transfected CV-1 cells. The cells were then incubated for 18 hrs. The next day cells were lysed and examined for luminescence.

Chain of hFXR (Q96RI1 whole entry): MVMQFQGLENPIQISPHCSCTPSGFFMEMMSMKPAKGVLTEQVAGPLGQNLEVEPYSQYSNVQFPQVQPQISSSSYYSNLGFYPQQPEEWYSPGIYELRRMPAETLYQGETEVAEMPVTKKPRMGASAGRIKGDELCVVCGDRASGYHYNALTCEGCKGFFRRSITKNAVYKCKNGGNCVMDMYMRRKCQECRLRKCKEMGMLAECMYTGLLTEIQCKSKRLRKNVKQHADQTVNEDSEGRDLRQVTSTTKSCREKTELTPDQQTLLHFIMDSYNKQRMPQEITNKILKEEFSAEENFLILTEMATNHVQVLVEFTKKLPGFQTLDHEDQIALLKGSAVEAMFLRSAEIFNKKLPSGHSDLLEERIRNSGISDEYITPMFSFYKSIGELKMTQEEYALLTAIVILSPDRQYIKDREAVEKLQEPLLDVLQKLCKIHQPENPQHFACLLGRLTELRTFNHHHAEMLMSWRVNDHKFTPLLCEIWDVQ
Chain of hFXR (P19793 whole entry partner): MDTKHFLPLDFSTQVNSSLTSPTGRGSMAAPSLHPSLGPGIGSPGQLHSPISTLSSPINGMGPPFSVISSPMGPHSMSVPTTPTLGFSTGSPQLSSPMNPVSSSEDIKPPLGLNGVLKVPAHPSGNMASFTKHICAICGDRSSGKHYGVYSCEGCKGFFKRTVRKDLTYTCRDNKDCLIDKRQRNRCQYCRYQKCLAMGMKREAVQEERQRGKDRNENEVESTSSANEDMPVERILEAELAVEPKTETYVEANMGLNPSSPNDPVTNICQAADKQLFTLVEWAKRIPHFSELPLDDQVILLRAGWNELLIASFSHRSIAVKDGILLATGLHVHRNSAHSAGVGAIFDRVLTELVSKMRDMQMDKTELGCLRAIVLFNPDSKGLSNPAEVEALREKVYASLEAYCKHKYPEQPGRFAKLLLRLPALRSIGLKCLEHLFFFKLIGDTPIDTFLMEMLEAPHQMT

Row | EC50 [nM] | SMILES
1 | ≤ 250 | COc1ccc([C@H]2CC[C@H](CN(c3cccc(-c4cnn(CC(F)F)c4)c3)C(=O)[C@H]3CC[C@H](O)CC3)CC2)cc1C [Compound 2.05, trans-N-(3-(1-(2,2-Difluoroethyl)-1H-pyrazol-4-yl)phenyl)-4-hydroxy-N-((trans-4-(4-methoxy-3-methylphenyl)cyclohexyl)methyl)cyclohexanecarboxamide]
2 | ≤ 250 | COc1ccc([C@H]2CC[C@H](CN(c3cccc(-c4cnn(C5CC5)c4)c3)C(=O)[C@H]3CC[C@H](O)CC3)CC2)cc1C#N [Compound 2.04, trans-N-((trans-4-(3-Cyano-4-methoxyphenyl)cyclohexyl)methyl)-N-(3-(1-cyclopropyl-1H-pyrazol-4-yl)phenyl)-4-hydroxycyclohexanecarboxamide]
3 | ≤ 250 | COc1ccc(C23CCC(CN(c4cc(-c5cnn(C(C)C)c5)ccn4)C(=O)[C@H]4CC[C@H](O)CC4)(CC2)CC3)cc1C [Compound 2.09]
4 | ≤ 250 | COc1ccc([C@H]2CC[C@H](CN(c3cccc(-c4cnn(C(C)(C)C)c4)c3)C(=O)[C@H]3CC[C@H](O)CC3)CC2)nc1C [Compound 5.15, trans-N-(3-(1-(tert-Butyl)-1H-pyrazol-4-yl)phenyl)-4-hydroxy-N-((trans-4-(5-methoxy-6-methylpyridin-2-yl)cyclohexyl)methyl)cyclohexanecarboxamide]
5 | ≤ 250 | CN(C)c1ccc(C23CCC(CN(c4cccc(-c5cnn(C6CC6)c5)c4)C(=O)[C@H]4CC[C@H](O)CC4)(CC2)CC3)cn1 [Compound 6.01, trans-N-(3-(1-Cyclopropyl-1H-pyrazol-4-yl)phenyl)-N-((4-(6-(dimethylamino)pyridin-3-yl)bicyclo[2.2.2]octan-1-yl)methyl)-4-hydroxycyclohexanecarboxamide]
6 | ≤ 250 | COc1ncc([C@H]2CC[C@H](CN(c3cccc(-c4cnn(C5CC5)c4)c3)C(=O)[C@H]3CC[C@H](O)CC3)CC2)cc1Cl [Compound 5.10, trans-N-((trans-4-(5-chloro-6-methoxypyridin-3-yl)cyclohexyl)methyl)-N-(3-(1-cyclopropyl-1H-pyrazol-4-yl)phenyl)-4-hydroxycyclohexanecarboxamide]
7 | ≥ 1000 | COc1ccc([C@H]2CC[C@H](CN(c3cccc(-c4cnn(C(C)C)c4)c3)C(=O)[C@H]3CC[C@H](N)CC3)CC2)cc1C [Compound 7, trans-4-Amino-N-(3-(1-isopropyl-1H-pyrazol-4-yl)phenyl)-N-((trans-4-(4-methoxy-3-methylphenyl)cyclohexyl)methyl)cyclohexanecarboxamide]
8 | ≤ 250 | COc1ccc([C@H]2CC[C@H](CN(c3cccc(C#Cc4cc[nH]n4)c3)C(=O)[C@H]3CC[C@H](O)CC3)CC2)cc1C [Compound 4.03, trans-N-(3-((1H-Pyrazol-3-yl)ethynyl)phenyl)-4-hydroxy-N-((trans-4-(4-methoxy-3-methylphenyl)cyclohexyl)methyl)cyclohexanecarboxamide]
9 | ≤ 250 | COc1ccc([C@H]2CC[C@H](CN(c3cccc(-c4cnn(C(C)C)c4)c3)C(=O)[C@H]3CC[C@H](O)CC3)CC2)cc1C [Compound 3.02, trans-4-Hydroxy-N-(3-(1-isopropyl-1H-pyrazol-4-yl)phenyl)-N-((trans-4-(4-methoxy-3-methylphenyl)cyclohexyl)methyl)cyclohexanecarboxamide]
10 | ≤ 250 | COc1ccc(C23CCC(CN(c4cccc(-c5cnn(C6CC6)c5)c4)C(=O)[C@H]4CC[C@H](O)CC4)(CC2)CC3)cc1C [Compound 6, trans-N-(3-(1-Cyclopropyl-1H-pyrazol-4-yl)phenyl)-4-hydroxy-N-((4-(4-methoxy-3-methylphenyl)bicyclo[2.2.2]octan-1-yl)methyl)cyclohexanecarboxamide]
11 | ≤ 250 | COc1ccc([C@H]2CC[C@H](CN(C(=O)C3CCCCC3)c3cccc(-c4cnn(C5CC5)c4)c3)CC2)cc1C [Compound 5.24, N-(3-(1-Cyclopropyl-1H-pyrazol-4-yl)phenyl)-N-((trans-4-(4-methoxy-3-methylphenyl)cyclohexyl)methyl)cyclohexanecarboxamide]
12 | 250 to 1000 | CCn1cc([C@H]2CC[C@H](CN(c3cccc(-c4cnn(C5CC5)c4)c3)C(=O)[C@H]3CC[C@H](O)CC3)CC2)cn1 [Compound 5.16, trans-N-(3-(1-Cyclopropyl-1H-pyrazol-4-yl)phenyl)-N-((trans-4-(1-ethyl-1H-pyrazol-4-yl)cyclohexyl)methyl)-4-hydroxycyclohexanecarboxamide]
13 | ≤ 250 | COc1ccc([C@H]2CC[C@H](CN(c3cccc(-c4cnn(C)c4)c3)C(=O)[C@H]3CC[C@H](O)CC3)CC2)cc1C [Compound 2.01, trans-4-Hydroxy-N-((trans-4-(4-methoxy-3-methylphenyl)cyclohexyl)methyl)-N-(3-(1-methyl-1H-pyrazol-4-yl)phenyl)cyclohexanecarboxamide]
14 | ≤ 250 | O=C([C@H]1CC[C@H](O)CC1)N(C[C@H]1CC[C@H](c2ccc3c(c2)OCO3)CC1)c1cccc(-c2cnn(C3CC3)c2)c1 [Compound 5.06, trans-N-((trans-4-(Benzo[d][1,3]dioxol-5-yl)cyclohexyl)methyl)-N-(3-(1-cyclopropyl-1H-pyrazol-4-yl)phenyl)-4-hydroxycyclohexanecarboxamide]
15 | ≤ 250 | COc1ccc([C@H]2CC[C@H](CN(c3cccc(-c4cnn(C5CCC5)c4)c3)C(=O)[C@H]3CC[C@H](O)CC3)CC2)nc1C [Compound 5.17, trans-N-(3-(1-Cyclobutyl-1H-pyrazol-4-yl)phenyl)-4-hydroxy-N-((trans-4-(5-methoxy-6-methylpyridin-2-yl)cyclohexyl)methyl)cyclohexanecarboxamide]
16 | 250 to 1000 | COc1ccc([C@H]2CC[C@H](CN(c3cc(-c4cnn(C5CC5)c4)ccn3)C(=O)[C@H]3CC[C@H](O)CC3)CC2)nc1C#N [Compound 5.22, trans-N-((trans-4-(6-Cyano-5-methoxypyridin-2-yl)cyclohexyl)methyl)-N-(4-(1-cyclopropyl-1H-pyrazol-4-yl)pyridin-2-yl)-4-hydroxycyclohexanecarboxamide]
17 | ≤ 250 | COc1ccc([C@H]2CC[C@H](CN(c3cccc(C#Cc4cnn(C)c4)c3)C(=O)[C@H]3CC[C@H](O)CC3)CC2)cc1C [Compound 4, trans-4-Hydroxy-N-((trans-4-(4-methoxy-3-methylphenyl)cyclohexyl)methyl)-N-(3-((1-methyl-1H-pyrazol-4-yl)ethynyl)phenyl)cyclohexanecarboxamide]
18 | ≤ 250 | CCC(C)n1cc(-c2cccc(N(C[C@H]3CC[C@H](c4ccc(OC)c(C)c4)CC3)C(=O)[C@H]3CC[C@H](O)CC3)c2)cn1 (stereo partly drawn) [Compound 3.13, trans-N-(3-(1-(sec-Butyl)-1H-pyrazol-4-yl)phenyl)-4-hydroxy-N-((trans-4-(4-methoxy-3-methylphenyl)cyclohexyl)methyl)cyclohexanecarboxamide]
19 | ≤ 250 | CCn1cc(-c2cccc(N(C[C@H]3CC[C@H](c4ccc(OC)c(C#N)c4)CC3)C(=O)[C@H]3CC[C@H](O)CC3)c2)cn1 [Compound 2, trans-N-((trans-4-(3-Cyano-4-methoxyphenyl)cyclohexyl)methyl)-N-(3-(1-ethyl-1H-pyrazol-4-yl)phenyl)-4-hydroxycyclohexanecarboxamide]
20 | ≤ 250 | COc1ccc([C@H]2CC[C@H](CN(c3cc(-c4cnn(C(C)C)c4)ccn3)C(=O)[C@H]3CC[C@H](O)CC3)CC2)nc1C [Compound 5.19, trans-4-Hydroxy-N-(4-(1-isopropyl-1H-pyrazol-4-yl)pyridin-2-yl)-N-((trans-4-(5-methoxy-6-methylpyridin-2-yl)cyclohexyl)methyl)cyclohexanecarboxamide]
21 | 250 to 1000 | COc1ccc([C@H]2CC[C@H](CN(c3cccc(-n4cc(C)cn4)c3)C(=O)[C@H]3CC[C@H](O)CC3)CC2)cc1C [Compound 1, trans-4-Hydroxy-N-((trans-4-(4-methoxy-3-methylphenyl)cyclohexyl)methyl)-N-(3-(4-methyl-1H-pyrazol-1-yl)phenyl)cyclohexanecarboxamide]
22 | 250 to 1000 | Cc1cc([C@H]2CC[C@H](CN(c3cccc(-c4cnn(C5CC5)c4)c3)C(=O)[C@H]3CC[C@H](O)CC3)CC2)ccc1O [Compound 8, trans-N-(3-(1-Cyclopropyl-1H-pyrazol-4-yl)phenyl)-4-hydroxy-N-((trans-4-(4-hydroxy-3-methylphenyl)cyclohexyl)methyl)cyclohexanecarboxamide]
23 | ≤ 250 | COc1ccc([C@H]2CC[C@H](CN(c3cccc(-c4cnn(C(F)F)c4)c3)C(=O)[C@H]3CC[C@H](O)CC3)CC2)cc1C [Compound 3.11, trans-N-(3-(1-(Difluoromethyl)-1H-pyrazol-4-yl)phenyl)-4-hydroxy-N-((trans-4-(4-methoxy-3-methylphenyl)cyclohexyl)methyl)cyclohexanecarboxamide]
24 | ≤ 250 | COc1ccc([C@H]2CC[C@H](CN(c3cccc(-c4cnn(C5CC5)c4)c3)C(=O)[C@H]3CC[C@H](O)CC3)CC2)cc1Cl [Compound 5.03, trans-N-((trans-4-(3-Chloro-4-methoxyphenyl)cyclohexyl)methyl)-N-(3-(1-cyclopropyl-1H-pyrazol-4-yl)phenyl)-4-hydroxycyclohexanecarboxamide]
